# Where two headings read alike, the source gives them in different places.
# Tests used:
# LoVo cells = assay: Cell growth inhibition assay (MTS assay), LoVo cells; format: cell-based, Human; conditions: 48 hours, RPMI1640-SIT serum-free medium, read-out: Half maximal inhibitory concentration (IC50) LoVo cells
# Procedure: (§1) Cell Growth Inhibition Assay (MTS Assay)
# (§2) 1. Cell Strain and Reagents
# LoVo: Human colorectal adenocarcinoma cell line (ATCC catalog # CCL-229);
# (§3) SIT solution (SIGMA), RPMI 1640 culture solution, Phosphate buffer, Dimethyl sulfoxide (DMSO), MTS solution (Promega), 96-well cell culture plate;
# (§4) Anti-tumor compounds: synthesized by Tianjin Hemay Bio-tech Co., Ltd.;
# (§5) Positive control drugs: doxorubicin (Zhejiang Hisun Pharmaceutical Co., Ltd).
# (§6) The above-mentioned cells were cultured for several days (RPMI 1640, 10% of bovine serum), collected and suspended in RPMI1640-SIT serum-free medium, placed into a 96-well cell culture plate with each well containing about 20,000 cells/100 μL. The cells were cultured overnight at 5% CO2 and 37° C. The next day, representative antitumor compounds (between 3 and 10 mM) were dissolved in dimethyl sulphoxide (DMSO) to obtain a mother solution. Doxorubicin was used as positive control, DMSO was used as negative control.
# (§7) The mother solution was diluted and added to the 96 well cell culture plate, culture for 48 hours at 5% CO2 and 37° C. Subsequently, 20 μL of MTS solution was added to each well of the 96 well cell culture plate and cultured for another 2 to 4 hours at 5% CO2 and 37° C. Absorbance was read at 490 nm wavelength, and converted into cell survival rate.
# (§8) Calculation of Percent Inhibition:
# (§9) %inhibition=100−[reading of absorbance(compound)/reading of absorbance(blank)]×100
# (§10) For each concentration, there two measurements were taken and the average value was recorded. The half maximal inhibitory concentration (IC50) of cell growth was calculated by cell growth inhibition curve.
# HeLa cells = assay: Cell growth inhibition assay (MTS assay), HeLa cells; format: cell-based, Human; conditions: 48 hours, RPMI1640-SIT serum-free medium, read-out: Half maximal inhibitory concentration (IC50) HeLa cells
# Procedure: as §1, §2
# HeLa: Human adenocarcinoma cell line (ATCC catalog # CCL-2);
# as §3, §4, §5, §6, §7, §8, §9, §10
# SW620 cells = assay: Cell growth inhibition assay (MTS assay), SW620 cells; format: cell-based, Human; conditions: RPMI1640-SIT serum-free medium, read-out: Half maximal inhibitory concentration (IC50) SW620 cells
# Procedure: as §1, §2
# SW620: Human colorectal adenocarcinoma cell line;
# as §3, §4, §5, §6, §7, §8, §9, §10
# Solubility in water = format: physicochemical
IC50 (LoVo cells) [µM],Compound,other results
30,2-(2-(2-(2-(2-(2-(2-oleoylaminoethoxy)ethoxy)ethoxy)ethoxy)ethoxy)ethoxy)acetyl-L-Alanyl-L-Valyl-Doxorubicin [Example 68],
12,4-(2-(2-oleoylaminoethoxy)ethylamino)-4-oxo-butanoyl-L-Alanyl-L-Valyl-Doxorubicin bissuccinate [Example 77],IC50 (HeLa cells): 75 µM
50,4-(2-oleoylaminoethylamino)-4-oxo-butanoyl-L-Alanyl-L-Valyl-Doxorubicin bissuccinate [Example 79],
,"COc1cccc2c1C(=O)c1c(O)c3c(c(O)c1C2=O)C[C@@](O)(C(=O)CO)C[C@@H]3O[C@H]1C[C@H](N)[C@H](O)[C@H](C)O1 [Doxorubicin, doxorubicin, reference compound]","IC50 (SW620 cells; Homo sapiens, SW-620, 48 hours): 0.65 µM; IC50 (LoVo cells; Homo sapiens, LoVo): 2.6 µM; IC50 (HeLa cells; Homo sapiens, HeLa): 0.3 µM"
> 100,"CCCCCCCCC=CCCCCCCCC(=O)NCCNC(=O)CCC(=O)NCCNC(=O)CCC(=O)NC(C)C(=O)NC(C(=O)NC1CC(OC2CC(O)(C(=O)CO)Cc3c(O)c4c(c(O)c32)C(=O)c2c(OC)cccc2C4=O)OC(C)C1O)C(C)C [Example 59, 4-(2-(4-(2-oleoylaminoethylamino)-4-oxo-butanoylamino)ethylamino)-4-oxo-butanoyl-L-Alanyl-L-Valyl-Doxorubicin]",
2.5,"CCCCCCCC/C=C\CCCCCCCC(=O)NCCOCCOCCOCCOCCOCCOCC(=O)N[C@@H](C)C(=O)N[C@H](C(=O)NC1CC(OC2CC(O)(C(=O)COC(=O)CCC(=O)O)Cc3c(O)c4c(c(O)c32)C(=O)c2c(OC)cccc2C4=O)OC(C)C1OC(=O)CCC(=O)O)C(C)C (stereo partly drawn) [Example 86, 2-(2-(2-(2-(2-(2-(2-oleoylamino-ethoxy)ethoxy)ethoxy)ethoxy)ethoxy)ethoxy)actyl-L-Alanyl-L-Valyl-Doxorubicin bissuccinate]",
25,(4-(2-(2-oleoylaminoethoxy)ethoxy)-4-oxo-butanoyl)-L-Alanyl-L-Valyl-Doxorubicin [Example 69],IC50 (SW620 cells; 48 hours): 12 µM; IC50 (HeLa cells): > 100 µM
25,(4-(2-(2-oleoylaminoethoxy)ethylamino)-4-oxo-butanoyl)-L-Alanyl-L-Valyl-Doxorubicin [Example 54],
> 100,(4-(2-oleoylaminoethylamino)-4-oxo-butanoyl)-L-Alanyl-L-Valyl-Doxorubicin [Example 57],
2,Bissodium 4-(2-(2-oleoylaminoethoxy)ethylamino)-4-oxo-butanoyl-L-Alanyl-L-Valyl-Doxorubicin bissuccinate [Example 112],IC50 (SW620 cells; 48 hours): 1.5 µM; IC50 (HeLa cells): 3 µM
15,Bissodium linoleic acyl-L-Alanyl-L-Valyl-Doxorubicin bissuccinate [Example 108],
12,Bissodium linolenic acyl-L-Alanyl-L-Valyl-Doxorubicin bissuccinate [Example 109],
,"Bissodium oleoyl-L-Alanyl-L-Valyl-Doxorubicin bis(2-carboxyl-3,4,5,6-tetrafluorobenzoate) [Example 119]",solubility in water (Solubility in water): more than 1 mg/mL
25,DHA acyl-L-Alanyl-L-Valyl-Doxorubicin bissuccinate [Example 82],
20,Linoleic acyl-L-Alanyl-L-Valyl-Doxorubicin bissuccinate [Example 80],IC50 (HeLa cells): > 100 µM
18,Linolenic acyl-L-Alanyl-L-Valyl-Doxorubicin bissuccinate [Example 81],
8,Oleoyl-Glycyl-L-Alanyl-L-Valyl-Doxorubicin bissuccinate [Example 74],
10,"Oleoyl-L-Alanyl-L-Valyl-Doxorubicin bis(2-carboxyl-3,4,5,6-tetrafluorobenzoate) [Example 97]",
20,Oleoyl-L-Alanyl-L-Valyl-Doxorubicin bissuccinate [Example 70],IC50 (HeLa cells): > 100 µM
0.8,Oleoyl-L-Alanyl-L-Valyl-Epirubicin bissuccinate [Example 75],
30,Oleoyl-L-Alanyl-L-Vayl-Doxorubicin maleate [Example 98],
10,Trisodium 4-(2-(2-oleoylaminoethoxy)ethylamino)-4-oxo-butanoyl-L-Alanyl-L-Valyl-Doxorubicin trisuccinate [Example 121],IC50 (HeLa cells): 5 µM

Compound,IC50 (LoVo cells) [µM],other results
"COc1cccc2c1C(=O)c1c(O)c3c(c(O)c1C2=O)CC(O)(C(=O)CO)CC3OC1CC(NC(=O)[C@@H](NC(=O)[C@H](C)NC(=O)CCC(=O)NCCNC(=O)CCC(=O)NCCNC(=O)OC(C)(C)C)C(C)C)C(O)C(C)O1 (stereo partly drawn) [Example 58, 4-(2-(4-(2-tert-butoxycarbonyl-aminoethylamino)-4-oxo-butanoylamino)ethylamino)-4-oxo-butanoyl-L-Alanyl-L-Valyl-Doxorubicin]",75,
Oleoyl-L-Alanyl-L-Valyl-Daunorubicin bissuccinate [Example 76],10,

# From patent US20090325894A1 (priority 2007, published 2009)
